Reference: patent US20180057505A1, “BICYCLIC HETEROARYL COMPOUNDS USEFUL AS INHIBITORS OF THE PAR-2 SIGNALING PATHWAY” (VERTEX PHARMACEUTICALS INCORPORATED, priority 2015, published 2018)

Assays:
Format in all cases: cell-based
[1] = system: Thrombin-stimulated Ca2+ response in HT-29 cells; experiment: Ca FLIPR TETRA assay, ANTAGONIST mode, activator 1 U/mL Thrombin; details: Homo sapiens; HT-29 cells, activator 1 U/mL Thrombin
Outline: (§1)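 Antagonist-mode FLIPR Tetra Ca2+ read: dye-loaded HT-29 cells preincubated 30 min at r.t. with compound (first read checks agonism alone), then challenged with final 3.1 U/mL trypsin, 8 μM SLIGKV, 1 U/mL thrombin or 0.6 μM UTP. Cells plated overnight in 1% FBS McCoy's; Calcium 5 loading 45 min 37 °C plus 15 min r.t.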

PAR2 (HT-29 cells) [2] = target: T1, PAR2 (HT-29 cells) (Homo sapiens, UniProt P55085); experiment: Ca FLIPR TETRA assay, ANTAGONIST mode, activator 8 μM SLIGKV; details: HT-29 cells, activator 8 μM SLIGKV; maximal antagonist concentration per Method (A: 0.1, 1 or 2 μM; B: 50 μM)
T1 construct: host or cells: HT-29
T1 sequence (P55085 26-397): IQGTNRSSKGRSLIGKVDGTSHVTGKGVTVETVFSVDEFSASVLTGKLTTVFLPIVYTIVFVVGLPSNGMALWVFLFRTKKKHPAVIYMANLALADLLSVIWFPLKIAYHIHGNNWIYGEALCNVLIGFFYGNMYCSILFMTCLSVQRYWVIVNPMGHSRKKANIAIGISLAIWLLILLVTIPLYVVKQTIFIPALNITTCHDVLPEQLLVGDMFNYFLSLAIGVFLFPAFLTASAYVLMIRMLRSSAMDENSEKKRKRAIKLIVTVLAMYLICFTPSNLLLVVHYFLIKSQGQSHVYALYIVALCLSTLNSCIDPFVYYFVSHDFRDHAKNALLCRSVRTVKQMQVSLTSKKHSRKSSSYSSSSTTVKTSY
Outline: as §1

[3] = system: UTP-stimulated Ca2+ response in HT-29 cells; experiment: Ca FLIPR TETRA assay, ANTAGONIST mode, activator 0.6 μM UTP; details: Homo sapiens; HT-29 cells, activator 0.6 μM UTP
Outline: as §1

PAR2 (HT-29 cells) [4] = target: T1, PAR2 (HT-29 cells); experiment: Ca FLIPR TETRA assay, ANTAGONIST mode, activator 3.1 U/mL trypsin; details: HT-29 cells, activator 3.1 U/mL trypsin; maximal antagonist concentration per Method (A: 0.1, 1 or 2 μM; B: 50 μM)
Outline: as §1

| Compound | IC50 [1] | IC50 (PAR2 (HT-29 cells) [2]) | IC50 [3] | IC50 (PAR2 (HT-29 cells) [4]) |
| --- | --- | --- | --- | --- |
| CC(C)c1cc(-c2ccc(F)cc2)nc2cc(C(=O)N3CCN(C(=O)[C@H]4C[C@@](C)(O)C4)CC3(C)C)oc12 [Example I-136] | > 1000 nM | 6.4 nM | > 1000 nM | 7.4 nM |
| CC(C)c1cc(-c2ccc(F)cc2)nc2cc(C(=O)N3CCN(C(=O)[C@H]4C[C@@](O)(C(F)(F)F)C4)CC3(C)C)oc12 [Example I-137] | 500 nM | 7.8 nM | 830 nM | 9.4 nM |
| Cc1cc(C(=O)N2CCN(C(=O)c3cc4nc(-c5ccc(F)cc5)cc(C(C)C)c4o3)C(C)(C)C2)on1 [Example I-138] | > 1000 nM | 2 nM | > 1000 nM | 2.2 nM |
| CC(C)c1cc(-c2ccc(F)cc2)nc2cc(C(=O)N3CCN(C(=O)c4ccnn4C)CC3(C)C)oc12 [Example I-139] | > 1000 nM | 24 nM | > 1000 nM | 33 nM |
| Cc1cnoc1C(=O)N1CCN(C(=O)c2cc3nc(-c4ccc(F)cc4)cc(C(C)C)c3o2)C(C)(C)C1 [Example I-140] | > 1000 nM | 4.8 nM | > 1000 nM | 3.5 nM |
| CC(C)c1cc(-c2ccc(F)cc2)nc2cc(C(=O)N3CCN(C(=O)c4ccn(C)n4)CC3(C)C)oc12 [Example I-141] | > 1000 nM | 3.2 nM | > 1000 nM | 4.2 nM |
| CC(C)c1cc(-c2ccc(F)cc2)nc2cc(C(=O)N3CCN(C(=O)c4nnc[nH]4)CC3(C)C)oc12 [Example I-142] | > 1000 nM | 7.2 nM | > 1000 nM | 13 nM |
| C=C(C)c1cc(-c2ccc(F)cc2)nc2cc(C(=O)N3CCN(C(=O)[C@H]4C[C@](O)(C(F)(F)F)C4)CC3(C)C)oc12 [Example I-143] | > 1000 nM | 2.1 nM | > 1000 nM | 2.2 nM |
| CC(C)c1cc(-c2ccc(F)cc2)nc2cc(C(=O)N3CCN(S(=O)(=O)c4cn(C)cn4)CC3(C)C)oc12 [Example I-144] | > 1000 nM | 24 nM | > 1000 nM | 31 nM |
| Cc1ncc(S(=O)(=O)N2CCN(C(=O)c3cc4nc(-c5ccc(F)cc5)cc(C(C)C)c4o3)C(C)(C)C2)n1C [Example I-145] | > 1000 nM | 40 nM | > 1000 nM | 42 nM |
| Cc1nn(C)cc1S(=O)(=O)N1CCN(C(=O)c2cc3nc(-c4ccc(F)cc4)cc(C(C)C)c3o2)C(C)(C)C1 [Example I-146] | > 1000 nM | 13 nM | > 1000 nM | 21 nM |
| CC(C)c1cc(-c2ccc(F)cc2)nc2cc(C(=O)N3CCN(S(=O)(=O)c4cn[nH]c4)CC3(C)C)oc12 [Example I-147] | > 1000 nM | 20 nM | > 1000 nM | 34 nM |
| CC(C)c1cc(-c2ccc(F)cc2)nc2cc(C(=O)N3CCN(S(=O)(=O)c4ccn(C)n4)CC3(C)C)oc12 [Example I-148] | > 1000 nM | 46 nM | > 1000 nM | 36 nM |
| CC(C)(C)c1cc(-c2ccc(F)cc2)nc2cc(C(=O)N3CCNC(=O)C3(C)C)oc12 [Example I-149] | > 1000 nM | 7.6 nM | > 1000 nM | 9.6 nM |
| CCc1cc(-c2ccc(F)cc2)nc2cc(C(=O)N3CCN(C(=O)[C@H]4C[C@](O)(C(F)(F)F)C4)CC3(C)C)oc12 [Example I-150] | > 1000 nM | 1.1 nM | > 1000 nM | 1.6 nM |
| CC(C)(C)c1cc(-c2ccc(F)cc2)nc2cc(C(=O)N3CCN(C(=O)[C@H]4C[C@@](C)(O)C4)CC3(C)C)oc12 [Example I-151] | > 1000 nM | 1.5 nM | > 1000 nM | 2.7 nM |

| Compound | IC50 [1] | IC50 (PAR2 (HT-29 cells) [2]) | IC50 [3] | IC50 (PAR2 (HT-29 cells) [4]) |
| --- | --- | --- | --- | --- |
| CC(C)(C)c1cc(-c2ccc(F)cc2)nc2cc(C(=O)N3CCN(C(=O)c4ccn[nH]4)CC3(C)C)oc12 [Example I-152] | > 1000 nM | 8.1 nM | > 1000 nM | 7.7 nM |
| CC(C)(C)c1cc(-c2ccc(Cl)cc2)nc2cc(C(=O)N3CCNC(=O)C3(C)C)oc12 [Example I-153, 4-[7-tert-butyl-5-(4-chlorophenyl)furo[3,2-b]pyridine-2-carbonyl]-3,3-dimethyl-piperazin-2-one] | > 1000 nM | 4.9 nM | > 1000 nM | 3 nM |
| CC(C)(C)c1cc(-c2ccc(F)cc2)nc2cc(C(=O)N3CCN(C(=O)c4nnc[nH]4)CC3(C)C)oc12 [Example I-154] | > 1000 nM | 4.7 nM | > 1000 nM | 3.6 nM |
| CC(C)c1cc(-c2ccc(C(F)(F)F)cc2)nc2cc(C(=O)N3CCNC(=O)C3(C)C)oc12 [Example I-155] | > 1000 nM | 14 nM | > 1000 nM | 28 nM |
| CC(C)(C)c1cc(-c2ccc(C(F)(F)F)cc2)nc2cc(C(=O)N3CCNC(=O)C3(C)C)oc12 [Example I-156] | > 1000 nM | 18 nM | > 1000 nM | 26 nM |
| CC(C)(C)c1cc(-c2ccc(C(F)(F)F)cc2)nc2cc(C(=O)N3CCN(C(=O)[C@H]4C[C@@](C)(O)C4)CC3(C)C)oc12 [Example I-158] | > 1000 nM | 3.1 nM | > 1000 nM | 3.9 nM |
| CC(C)(C)c1cc(-c2ccc(Cl)cc2)nc2cc(C(=O)N3CCN(C(=O)[C@H]4C[C@@](C)(O)C4)CC3(C)C)oc12 [Example I-159] | > 1000 nM | 0.6 nM | > 1000 nM | 1.1 nM |
| Cc1nnc(C(=O)N2CCN(C(=O)c3cc4nc(-c5ccc(F)cc5)cc(C(C)(C)C)c4o3)C(C)(C)C2)[nH]1 [Example I-160] | > 1000 nM | 1.6 nM | > 1000 nM | 3.1 nM |
| Cc1cc(-c2cc(C(C)(C)C)c3oc(C(=O)N4CCNC(=O)C4(C)C)cc3n2)ccc1F [Example I-161] | > 1000 nM | 16 nM | > 1000 nM | 25 nM |
| Cc1cc(-c2cc(C(C)(C)C)c3oc(C(=O)N4CCN(C(=O)c5nnc[nH]5)CC4(C)C)cc3n2)ccc1F [Example I-162] | > 1000 nM | 10 nM | > 1000 nM | 15 nM |
| Cc1cc(-c2cc(C(C)(C)C)c3oc(C(=O)N4CCN(C(=O)[C@H]5C[C@@](C)(O)C5)CC4(C)C)cc3n2)ccc1F [Example I-163] | > 1000 nM | 2.9 nM | > 1000 nM | 3.6 nM |
| Cc1ccc(-c2cc(C(C)(C)C)c3oc(C(=O)N4CCN(C(=O)[C@H]5C[C@@](C)(O)C5)CC4(C)C)cc3n2)cc1 [Example I-164] | > 1000 nM | 2.9 nM | > 1000 nM | 4 nM |
| Cc1ccc(-c2cc(C(C)(C)C)c3oc(C(=O)N4CCNC(=O)C4(C)C)cc3n2)cc1 [Example I-165] | > 1000 nM | 16 nM | > 1000 nM | 19 nM |
| Cc1nnc(C(=O)N2CCN(C(=O)c3cc4nc(-c5ccc(F)c(C)c5)cc(C(C)(C)C)c4o3)C(C)(C)C2)[nH]1 [Example I-166] | > 1000 nM | 1.3 nM | > 1000 nM | 3.3 nM |
| Cc1cc(-c2cc(C(C)(C)C)c3oc(C(=O)N4CCN(C(=O)c5ccn[nH]5)CC4(C)C)cc3n2)ccc1F [Example I-167] | > 1000 nM | 8.4 nM | > 1000 nM | 19 nM |
